Test results reported in publication PMC7496096, “Functional Characterisation of ClpP Mutations Conferring Resistance to Acyldepsipeptide Antibiotics in Firmicutes” (Chembiochem, 2020).
Values after ≈ are worked out from the molar mass of the structure shown.

Tests used:
S. aureus RC7 = type: cell-based, Staphylococcus aureus; details: resistant clone of S. aureus ATCC 29213; ClpP Q89→STOP, premature stop
Protocol: (§1) Determination of antibacterial activity: ADEP1 was purified from the culture supernatant of S. hawaiiensis NRRL 15010 as described.4 ADEPs 2, 4, 7, 9 were custom synthesised by EMC Microcollections, Tübingen, or provided by AiCuris, Wuppertal, Germany. The minimal inhibitory concentration (MIC) was determined by broth microdilution in Mueller‐Hinton broth (without cation adjustment) according to the guidelines of the Clinical Laboratory Standards Institute (CLSI).69 The inoculum was set to 5×10^4 CFU mL^−1 to allow some distance to the determined spontaneous resistance frequencies. […] All other ADEPs were used from DMSO stock solutions kept at −20 °C.
(§2) Screening for ADEP‐resistant mutants and determination of resistance rates: Single colonies of wild‐type strains grown on Mueller‐Hinton agar plates overnight were suspended in sterile saline and a final inoculum of 5×10^6 cells was spread on plates supplemented with different ADEP congeners at 4× and 10× the MIC. For B. subtilis strain 3xclpP, ADEP7‐containing Mueller‐Hinton agar plates were additionally supplemented with 1 mM IPTG. Resistant colonies were counted after 24 h at 37 °C and colonies were randomly chosen for MIC determinations and sequencing. Mutations in the clpP gene of the respective isolated mutants were analysed by amplifying the clpP gene (and upstream promoter region) by PCR and sequencing of the resulting PCR amplicons (LGC genomics). Sequencing data were analysed by using SnapGene software (GSL Biotech).

S. aureus RC14 = type: cell-based, Staphylococcus aureus; details: resistant clone of S. aureus ATCC 29213; ClpP I91→T; A96→V (ClpP core; β3, β4)
Protocol: as §1, §2

S. aureus RC5 = type: cell-based, Staphylococcus aureus; details: resistant clone of S. aureus 133; ClpP A133→V, ring-ring interaction
Protocol: as §1, §2

S. aureus RC4 = type: cell-based, Staphylococcus aureus; details: resistant clone of S. aureus 133; ClpP N173→D, ring-ring interaction
Protocol: as §1, §2

S. aureus RC2 = type: cell-based, Staphylococcus aureus; details: resistant clone of S. aureus 133; ClpP M190→T, ADEP binding site
Protocol: as §1, §2

B. subtilis RC9 = type: cell-based, Bacillus subtilis; details: resistant clone of B. subtilis 168; ClpP I165→N (equatorial interface; α6)
Protocol: as §1, §2

[1] = tested on: B. subtilis 3xclpP clones; type: cell-based, Bacillus subtilis; details: B. subtilis 3xclpP resistant clones
Protocol: as §1, §2

B. subtilis RC8 = type: cell-based, Bacillus subtilis; details: resistant clone of B. subtilis 168; ClpP R142→H, intra-ring interaction
Protocol: as §1, §2

B. subtilis RC10 = type: cell-based, Bacillus subtilis; details: resistant clone of B. subtilis 168; ClpP A177→V (C-terminus; α7)
Protocol: as §1, §2

B. subtilis RC3 = type: cell-based, Bacillus subtilis; details: resistant clone of B. subtilis 168; ClpP A76→T (ClpP core; α3)
Protocol: as §1, §2

B. subtilis RC5 = type: cell-based, Bacillus subtilis; details: resistant clone of B. subtilis 168; ClpP K85→STOP, premature stop
Protocol: as §1, §2

S. aureus 133 = test: Spontaneous resistance rate on ADEP-containing agar; type: cell-based, Staphylococcus aureus; details: ADEP exposure 4× MIC in Mueller-Hinton agar; 5×10^6 cells plated, colonies counted after 24 h at 37 °C
Protocol: as §2

S. aureus ATCC 29213 = test: as above; type: cell-based, Staphylococcus aureus; details: 5×10^6 cells plated, colonies counted after 24 h at 37 °C
Protocol: as §2

wild-type SaClpP = test: FITC-casein degradation by ADEP-activated ClpP; type: biochemical, Staphylococcus aureus; details: 1 μM SaClpP, 20 μM FITC-casein, 32 °C; Figure 6D
Protocol: Peptide and protein degradation assays: Degradation assays with the fluorogenic peptide substrate Suc‐Leu‐Tyr‐7‐amino‐4‐methylcoumarin (Suc‐LY‐AMC) were performed in either BsClpP (50 mM Tris‐HCl, 25 mM MgCl2, 200 mM KCl, 2 mM DTT, pH 8) or SaClpP activity buffer (100 mM HEPES pH 7, 100 mM NaCl) in black, flat‐bottom‐96‐well plates (Sarstedt) with a total reaction volume of 100 μl and reaction temperatures of 32 °C and 37 °C for SaClpP and BsClpP, respectively. Purified ClpP proteins (final concentrations as indicated in the respective experiments) and ADEP2 (applied in 1 μl from a DMSO stock solution) were mixed and pre‐incubated for 15 min at reaction temperatures. […] Fluorophore release upon peptide hydrolysis was read out in a Tecan Infinite M200Pro plate reader (excitation/emission: 380/460 nm) every 30–60 s for 1 h. […] SaClpP (1 μM) and ADEP2 (concentrations as indicated) were pre‐incubated at 32 °C for 15 min before initiating the reaction by addition of FITC – casein (20 μM final concentration) and fluorescence readout (excitation/emission: 485/535 nm). In both assays, enzyme velocity was determined by linear regression of the initial segment of the fluorescence‐time plot in GraphPad Prism 5. […] Decrease of fluorescence was monitored at an emission wavelength of 535 nm in white, flat‐bottom 96‐well‐plates (Greiner). […]

## C[C@@H]1C[C@H]2C(=O)OC[C@H](NC(=O)[C@H](Cc3cc(F)cc(F)c3)NC(=O)CCC3CCCCC3)C(=O)N3CCC[C@H]3C(=O)N3CCCC[C@H]3C(=O)N[C@@H](C)C(=O)N2C1 [ADEP2]
S. aureus RC7
  MIC: >64 µg/mL
S. aureus RC14
  MIC: >64 µg/mL
S. aureus RC5
  MIC: >64 µg/mL
S. aureus RC4
  MIC: >64 µg/mL
S. aureus RC2
  MIC: 2 µg/mL (≈ 2.5 µM)
B. subtilis RC9
  MIC: >64 µg/mL
[1]; mutation in lacA or aprE ectopic copy
  MIC, clpP mutations in the ectopic loci: ~1 µg/mL (≈ 1.25 µM)
[1]; mutation in native clpP locus
  MIC, clpP mutation in the original locus: > 64 µg/mL
B. subtilis RC8
  MIC: >64 µg/mL
B. subtilis RC10
  MIC: >64 µg/mL
B. subtilis RC3
  MIC: 16 to 32 µg/mL
B. subtilis RC5
  MIC: >64 µg/mL
S. aureus 133
  Resistance rate: 3×10^−6
S. aureus ATCC 29213; ADEP exposure 4× MIC in Mueller-Hinton agar
  Resistance rate: 7×10^−7
S. aureus ATCC 29213; ADEP exposure 10× MIC in Mueller-Hinton agar
  Resistance rate: 7×10^−7
wild-type SaClpP
  concentration sufficient for an almost maximal casein degradation rate: 3 µM
